Type in all cases: cell-based
Assay [1] concerns human cervix epitheloid carcinoma cell line (HeLa). Put plainly: MTT assay, in vitro anticancer activity, HeLa. As to conditions: HeLa cells, 24 hours incubation, read-out: inhibition concentrations IC50. The protocol: (§1) The in vitro anticancer activity of the prepared complexes listed as the examples below was determined by the MTT assay. The method is based on the ability of metabolic-active cells to reduce (by mitochondrial dehydrogenases) the yellow tetrazolium dye (3-(4,5-dimethylthiazol-2-yl)-2,5-diphenyltetrazolium bromide (MTT)) to the blue formazane end-product. Because the reduction proceeds only in the living cells, the cytotoxicity of various compounds can be determined using this process. The water-insoluble formazane is quantified after dissolving in dimethyl sulfoxide (DMSO) with the solution of ammonia on a spectrophotometer (ELISA reader). The in vitro anticancer activity testing was performed on the following human cancer cell lines: lung adenocarcinoma (A549), cervix epitheloid carcinoma (HeLa), malignant melanoma (G361), ovarian carcinoma (A2780), cisplatin-resistant ovarian carcinoma (A2780R) and prostate carcinoma (LNCaP). The cell lines were maintained in plastic vessels in the DMEM medium (5 g/l glucose, 2 mM glutamine, 100 U/mL penicillin, 100 µg/mL streptomycin, 10% foetal calf serum and sodium bicarbonate) for cell cultures. The 80 µL of cell suspensions (ca. 1.25 × 10^5 cells per mL) were pipetted onto 96-well plastic microtitration plates. These were further pre-incubated at 37 °C in the CO2 atmosphere for 24 hours. The tested copper complexes and cisplatin, used as positive and therapeutic standard, were dissolved in N,N'-dimetylformamide in the concentrations up to 50 mM which served as stock solutions. For the experiment, the stock solutions were diluted 1000 x in the incubation medium (maximum concentration of 50.0 µM). After removal of the cultivation media, the mixtures of appropriate concentration were added to the cancer cells for the incubation period of 24 hours. The MTT analysis was performed spectrophotometrically (TECAN, Schoeller Instruments LLC) at 540 nm.
(§2) The concentrations of the tested complexes (µM) toxic for 50% of cancer cells (inhibition concentration IC50) were calculated from the dose-response curves.
The determination of in vitro anticancer activity of the studied compounds 1-6 and cisplatin against human cervix epitheloid carcinoma cell line (HeLa) was performed by the MTT assay.
A general note: Tetrazolium assays rely on reduction of a dye to a coloured formazan, in cell work by metabolically active cells.

For assay [2], the system named is human malignant melanoma cancer cell line (G361). Briefly: MTT assay, in vitro anticancer activity, G361. As to conditions: G361 cells, 24 hours incubation, read-out: inhibition concentrations IC50. The protocol:
as §1, with “The 80 µL of cell suspensions (ca. 1.25 × 10^5 cells per mL) were pipetted onto 96-well plastic microtitration plates.” left out

The subject of assay [3] is human ovarian carcinoma cell line (A2780). Briefly: MTT assay, in vitro anticancer activity, A2780. As to conditions: A2780 cells, 24 hours incubation, read-out: inhibition concentrations IC50. On the procedure:
as §1, §2
The determination of in vitro anticancer activity of the studied compounds 1-6 and cisplatin against human ovarian carcinoma cell line (A2780) was performed by the MTT assay.

For assay [4], the system named is human prostate carcinoma cell line (LNCaP). Put plainly: MTT assay, in vitro anticancer activity, LNCaP. The conditions noted are these: LNCaP cells, 24 hours incubation, read-out: inhibition concentrations IC50. The protocol: as §1, §2
The determination of in vitro anticancer activity of the studied compounds 1-6 and cisplatin against human prostate carcinoma cell line (LNCaP) was performed by the MTT assay.

Assay [5] concerns human cisplatin-resistant ovarian carcinoma cell line (A2780R). Put plainly: MTT assay, in vitro anticancer activity, A2780R. The conditions noted are these: A2780R cells, 24 hours incubation, read-out: inhibition concentrations IC50. On the procedure: as §1, §2
The determination of in vitro anticancer activity of the studied compounds 1-6 and cisplatin against human cisplatin-resistant ovarian carcinoma cell line (A2780R) was performed by the MTT assay.

For assay [6], the system named is human lung adenocarcinoma cell line (A549). Put plainly: MTT assay, in vitro anticancer activity, A549. The conditions noted are these: A549 cells, 24 hours incubation, read-out: inhibition concentrations IC50. On the procedure:
as §1, §2
The determination of in vitro anticancer activity of the studied compounds 1-6 and cisplatin against human lung adenocarcinoma cell line (A549) was performed by the MTT assay.

Structures are written as SMILES.

With `F[B-](F)(F)F.O=c1c([O-])c(-c2ccccc2)[nH]c2ccccc12.[Cu+2].c1cnc2c(c1)ccc1cccnc12` [complex 4, (2-phenyl-4-oxo-1,4-dihydroquinolin-3-olato-κ^2O^3:O^4) (1,10-phenanthroline-κ^2N^1:N^10)copper(II) tetrafluoroborate], the IC50 in assay [1] was 2700 ± 600 nM; in assay [2] it was 640 ± 200 nM; in assay [3], 520 ± 100 nM; in assay [4] it was 1900 ± 600 nM; in assay [5] it was 1700 ± 600 nM; in assay [6], 3900 ± 1200 nM.
As for `Cc1cc2cccnc2c2ncccc12.O=[N+]([O-])[O-].O=c1c([O-])c(-c2ccccc2)[nH]c2ccccc12.[Cu+2]` [complex 2, (2-phenyl-4-oxo-1,4-dihydroquinolin-3-olato-κ^2O^3:O^4)(5-methyl-1,10-phenanthroline-κ^2N^1:N^10)copper(II) nitrate monohydrate], the IC50 stood at 2600 ± 400 nM in assay [1]; 530 ± 220 nM in assay [2]; 380 ± 30 nM in assay [3]; 2100 ± 600 nM in assay [4]; 780 ± 70 nM in assay [5]; 2500 ± 600 nM in assay [6].
On to `O=[N+]([O-])[O-].O=c1c([O-])c(-c2ccccc2)[nH]c2ccccc12.[Cu+2].c1ccc(-c2ccnc3c2ccc2c(-c4ccccc4)ccnc23)cc1` [complex 3, (2-phenyl-4-oxo-1,4-dihydroquinolin-3-olato-κ^2O^3:O^4)(4,7-diphenyl-1,10-phenanthroline-κ^2N^1:N^10)copper(II) nitrate monohydrate], for which the IC50 in assay [1] stood at 1000 ± 200 nM; in assay [2], 960 ± 30 nM; in assay [3], 660 ± 70 nM; in assay [4] it was 740 ± 210 nM; in assay [5], 730 ± 90 nM; in assay [6], 1700 ± 300 nM.
In the case of `O=[N+]([O-])[O-].O=c1c([O-])c(-c2ccccc2)[nH]c2ccccc12.[Cu+2].c1cnc2c(c1)ccc1cccnc12` [complex 1, (2-phenyl-4-oxo-1,4-dihydroquinolin-3-olato-κ^2O^3:O^4)(1,10-phenanthroline-κ^2N^1:N^10)copper(II) nitrate monohydrate], the IC50 in assay [1] was found to be 2900 ± 300 nM; in assay [2] it was 820 ± 150 nM; in assay [3], 650 ± 280 nM; in assay [4], 2400 ± 600 nM; in assay [5] it was 830 ± 300 nM; in assay [6], 2500 ± 400 nM.
`Cc1cc2cccnc2c2ncccc12.F[B-](F)(F)F.O=c1c([O-])c(-c2ccccc2)[nH]c2ccccc12.[Cu+2]` [complex 5, (2-phenyl-4-oxo-1,4-dihydroquinolin-3-olato-K^2O^3:O^4)(5-methyl-1,10-phenanthroline-κ^2N^1:N^10)copper(II) tetrafluoroborate monohydrate]: the IC50 came to 2400 ± 1000 nM in assay [1]; 530 ± 90 nM in assay [2]; 360 ± 50 nM in assay [3]; 1500 ± 600 nM in assay [4]; 560 ± 150 nM in assay [5]; 2500 ± 600 nM in assay [6].
Regarding `N.N.[Cl][Pt][Cl]` [cisplatin, cis-diammine-dichlorido platinum(II) complex, reference compound], the IC50 in assay [1] was 10000 ± 2600 nM; in assay [2], 3400 ± 100 nM; in assay [3] it was 12000 ± 800 nM; in assay [4], 3800 ± 1500 nM; in assay [5], 27000 ± 4600 nM; in assay [6], 25800 ± 7100 nM.
As for `F[B-](F)(F)F.O=c1c([O-])c(-c2ccccc2)[nH]c2ccccc12.[Cu+2].c1ccc(-c2ccnc3c2ccc2c(-c4ccccc4)ccnc23)cc1` [complex 6, (2-phenyl-4-oxo-1,4-dihydroquinolin-3-olato-κ^2O^3:O^4) (4,7-diphenyl-1,10-phenanthroline-κ^2N^1:N^10) copper(II) tetrafluoroborate], the IC50 in assay [1] was found to be 1300 ± 400 nM; in assay [2], 720 ± 60 nM; in assay [3], 570 ± 110 nM; in assay [4], 620 ± 80 nM; in assay [5], 700 ± 200 nM; in assay [6], 1300 ± 400 nM.

These data come from patent EP2650000A1, “Utilization of copper complexes involving 2-phenyl-3-hydroxy-4(1H)-quinolinone and 1,10-phenanthroline derivatives for the preparation of drugs for the treatment of tumour diseases” (Univerzita Palackeho, priority 2012, dated 2013).
